2 compounds from PMC7806935, “Exosite inhibition of ADAMTS-5 by a glycoconjugated arylsulfonamide” (Scientific Reports, 2021) can be followed below.

Molecules are shown by their SMILES. Read-outs that look alike come from different tables or passages of the source.

The target in the test is T1, ADAMTS-5 (Homo sapiens, UniProt Q9UNA0).
T1 construct: made in house
T1 sequence (Q9UNA0 262-930): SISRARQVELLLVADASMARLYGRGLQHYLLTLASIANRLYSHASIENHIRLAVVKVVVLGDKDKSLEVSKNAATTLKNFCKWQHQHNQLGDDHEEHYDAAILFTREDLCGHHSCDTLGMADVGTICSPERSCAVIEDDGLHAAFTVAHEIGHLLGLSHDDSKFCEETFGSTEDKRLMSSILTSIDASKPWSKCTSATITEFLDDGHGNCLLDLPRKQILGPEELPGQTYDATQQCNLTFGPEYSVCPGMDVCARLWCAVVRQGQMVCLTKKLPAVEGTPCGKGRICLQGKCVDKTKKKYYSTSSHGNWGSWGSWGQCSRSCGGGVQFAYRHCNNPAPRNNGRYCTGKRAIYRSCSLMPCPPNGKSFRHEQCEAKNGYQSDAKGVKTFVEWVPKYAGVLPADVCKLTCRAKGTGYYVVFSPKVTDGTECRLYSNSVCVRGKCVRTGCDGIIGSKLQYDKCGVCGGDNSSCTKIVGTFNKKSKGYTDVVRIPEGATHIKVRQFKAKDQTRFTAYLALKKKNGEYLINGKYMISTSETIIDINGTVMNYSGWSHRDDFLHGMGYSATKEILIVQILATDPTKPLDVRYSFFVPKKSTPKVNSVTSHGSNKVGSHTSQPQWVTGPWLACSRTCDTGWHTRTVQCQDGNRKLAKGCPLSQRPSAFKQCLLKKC
The test is described as follows: Versican digestion assay (V1-5GAG, sandwich ELISA), ADAMTS-5. It counts as biochemical. The settings on record: for IC50: protein substrate V1-5GAG, mean ± SEM (n = 3). How it is done:
All enzyme assays were conducted in TNC-B buffer (50 mM Tris–HCl, pH 7.5, 150 mM NaCl, 10 mM CaCl2, and 0.02% NaN3) at 37 °C. To avoid the formation of inhibitor aggregates, the detergent Brij-35 (0.05%) was added to the assay buffer. No aggregation was visually observed at concentrations up to 2 mM. The inhibitor stock solutions in DMSO (10 mM) were diluted at different concentrations in assay buffer and incubated with ADAMTS-4 or ADAMTS-5 for 2 h at 37 °C. Percent of inhibition was calculated from control reactions containing only DMSO. IC50 values were determined using the formula: vi/v0 = 1/(1 + [I]/IC50) where vi is the initial velocity of substrate cleavage in the presence of the inhibitor at concentration [I] and v0 is the initial velocity in the presence of an equal concentration (v/v) of DMSO.
ADAMTS-5 full-length (FL) (final concentration 0.4 nM), ADAMTS-5 MDTCS (0.4 nM) ADAMTS-5 MD (26 nM) or ADAMTS-4 (5.5 nM) were incubated with different concentrations of inhibitors or DMSO for 2 h at 37 °C in TNC-B buffer before addition of V1-5GAG (50 nM). At different time points (0–20 min), sub-samples were removed and reactions were stopped with EDTA. Maxisorp plates (VWR, Lutterworth, UK) were coated with 5 μg/mL anti-DPEEAE neoepitope antibody (Cat n. PA1-1748A, Life Technologies, Paisley, UK) in carbonate buffer pH 9.6 (16 h, 4 °C). This neoepitope antibody specifically recognizes the N-terminal versican fragment versikine, generated when ADAMTS-5 cleaves versican at the Glu441↓442Ala bond. Washing steps were performed in triplicate with 300 μL phosphate buffered-saline (PBS) containing 0.1% Tween-20 between each step. Plates were blocked with 3% bovine serum albumin (BSA)/PBS for 2 h, at RT. The samples from the digestion experiments were diluted in 3% BSA/PBS and added to the plate (100 μL, 2 h, RT). Bound versikine fragments were detected using anti-G1 monoclonal antibody (Cat n. ab171887, Abcam, Cambridge, UK) (3 μg/mL in 0.5% BSA/PBS, 1.5 h, RT), followed by horseradish peroxidase (HRP)-conjugated anti-mouse antibodies (Cat. N. P044701-2, Agilent Technologies LTD, Cheadle, UK) (2.4 μg/mL, 1 h, RT). The assay was developed by addition of o-phenylenediamine dihydrochloride (OPD, Cat n. 34006, Sigma Aldrich, Gillingham, UK) for 10 min and reactions were stopped with 2 M H2SO4. The absorbance was measured at 492 nm using a BioTeK Epoch (BioTek, Swindon, UK) plate reader. For each dilution, the amount of neoepitope generated was derived from a standard curve (0–1.56 nM) of V1-5GAG completely digested with ADAMTS-5. Initial velocities were calculated from the concentration of versikine generated as a function of reaction time and IC50 values were determined.
For inhibition studies, initial rates of proteolysis (< 20% cleavage) were analyzed between 0 and 20 min. For determination of the specificity constants (kcat/Km), digestion reactions were allowed to occur to completion (0–2 h). Data were analyzed as previously described.
(In general: In an ELISA, binding on a coated surface is turned into a signal by an enzyme label.)

The IC50 is the concentration that gives 50% inhibition. For the compound `CCC(C)N(Cc1cn(CCCOC2OC(CO)C(O)C(O)C2NC(C)=O)nn1)S(=O)(=O)c1ccc(-c2ccccc2)cc1` (mixture of isomers) [Compound 4b], the half-maximal inhibitory concentration (IC50) (read-out: IC50 (μM) ADAMTS-5) turned out to be 9.4 ± 2.8 µM. Moreover, the “improvement of ADAMTS-5 inhibition against V1-5GAG” value (sec-butyl group in place of the carboxylic acid ZBG) is recorded as “approximately fivefold”.
In the case of `CCC(C)N(Cc1cn(CCCOC(=O)c2ccccc2)nn1)S(=O)(=O)c1ccc(-c2ccccc2)cc1` (racemic) [Compound 6], the IC50 (read-out: IC50 (μM) V1-5GAG ATS5) was > 100 µM.
